Target: T1, BRM (Homo sapiens, UniProt P51531)
T1 construct: In-Cell Western Screen of BRM Degradation in SW1573 Cells; endogenous in cells; host or cells: SW1573
Experiment: In-cell Western screen of BRM degradation in SW1573 cells (Dmax and DC50)
Assay type: cell-based
Details: for DC50: target protein degradation, read-out: BRM DC50; for Dmax: SW1573, % degraded, when tested at the top concentration of between 0.3 and 10 μM, read-out: BRM Dmax (%)
In short: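 Near-infrared imaging on a LI-COR Odyssey (800 and 680 nm channels) quantifies BRM remaining in fixed SW1573 cells. Cells are dosed for 18-20 h at 0.1% final DMSO, and degradation is expressed as Dmax and DC50.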

T1 sequence (P51531 whole entry): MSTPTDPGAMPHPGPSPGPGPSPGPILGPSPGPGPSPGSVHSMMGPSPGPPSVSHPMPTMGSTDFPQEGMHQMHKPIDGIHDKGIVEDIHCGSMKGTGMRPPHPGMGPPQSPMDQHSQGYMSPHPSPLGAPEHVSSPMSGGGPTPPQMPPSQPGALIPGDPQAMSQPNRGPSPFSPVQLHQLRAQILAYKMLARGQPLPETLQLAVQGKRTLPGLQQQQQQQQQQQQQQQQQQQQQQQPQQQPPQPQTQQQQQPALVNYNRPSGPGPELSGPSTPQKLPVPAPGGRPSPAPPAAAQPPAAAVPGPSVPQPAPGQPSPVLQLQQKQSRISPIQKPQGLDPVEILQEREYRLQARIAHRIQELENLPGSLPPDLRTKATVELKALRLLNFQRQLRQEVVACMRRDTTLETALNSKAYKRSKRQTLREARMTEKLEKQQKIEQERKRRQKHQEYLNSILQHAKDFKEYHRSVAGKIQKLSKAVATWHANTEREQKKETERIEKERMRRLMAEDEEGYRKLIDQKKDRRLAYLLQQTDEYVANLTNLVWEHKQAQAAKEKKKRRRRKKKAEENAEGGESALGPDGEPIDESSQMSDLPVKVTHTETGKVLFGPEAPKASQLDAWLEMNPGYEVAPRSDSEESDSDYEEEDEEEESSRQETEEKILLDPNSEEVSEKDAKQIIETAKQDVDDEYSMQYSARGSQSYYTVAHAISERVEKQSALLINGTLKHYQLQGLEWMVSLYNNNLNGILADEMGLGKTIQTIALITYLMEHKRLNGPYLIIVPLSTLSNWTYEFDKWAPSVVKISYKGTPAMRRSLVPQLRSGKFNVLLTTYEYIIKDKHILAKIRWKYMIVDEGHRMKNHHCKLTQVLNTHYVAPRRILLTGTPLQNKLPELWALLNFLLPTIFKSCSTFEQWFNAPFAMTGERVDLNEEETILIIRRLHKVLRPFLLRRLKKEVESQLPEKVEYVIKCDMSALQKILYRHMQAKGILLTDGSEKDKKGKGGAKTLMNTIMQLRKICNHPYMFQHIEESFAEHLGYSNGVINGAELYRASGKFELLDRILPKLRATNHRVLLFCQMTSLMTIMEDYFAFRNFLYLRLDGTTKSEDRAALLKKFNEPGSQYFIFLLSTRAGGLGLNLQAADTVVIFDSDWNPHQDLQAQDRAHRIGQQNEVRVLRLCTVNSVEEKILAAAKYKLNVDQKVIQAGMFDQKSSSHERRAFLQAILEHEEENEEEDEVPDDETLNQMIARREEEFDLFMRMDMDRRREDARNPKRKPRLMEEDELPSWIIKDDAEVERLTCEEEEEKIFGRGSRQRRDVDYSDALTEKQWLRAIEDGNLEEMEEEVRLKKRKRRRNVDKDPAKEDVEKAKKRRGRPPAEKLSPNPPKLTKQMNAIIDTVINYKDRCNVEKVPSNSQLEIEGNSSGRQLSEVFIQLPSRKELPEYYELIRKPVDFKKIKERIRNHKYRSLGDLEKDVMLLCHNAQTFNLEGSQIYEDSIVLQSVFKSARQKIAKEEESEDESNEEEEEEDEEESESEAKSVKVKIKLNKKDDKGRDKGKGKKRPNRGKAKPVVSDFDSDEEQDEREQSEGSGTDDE

| DC50 [nM] | SMILES | Dmax [%] |
| --- | --- | --- |
| > 30 | Cc1ncsc1-c1ccc([C@H](C)NC(=O)[C@@H]2C[C@@H](O)CN2C(=O)[C@@H](c2cc(OCCC3CCN(C(=O)[C@H]4C[C@@H](CN5CCC(n6cc(-c7cc(-c8ccccc8O)nnc7N)cn6)CC5)C4)CC3)no2)C(C)C)cc1 [compound 466, (2S,4R)-1-((R)-2-(3-(2-(1-((1s,3S)-3-((4-(4-(3-amino-6-(2-hydroxyphenyl)pyridazin-4-yl)-1H-pyrazol-1-yl)piperidin-1-yl)methyl)cyclobutane-1-carbonyl)piperidin-4-yl)ethoxy)isoxazol-5-yl)-3-methylbutanoyl)-4-hydroxy-N-((S)-1-(4-(4-methylthiazol-5-yl)phenyl)ethyl)pyrrolidine-2-carboxamide] | – |
| < 2.5 | Cc1ncsc1-c1ccc([C@H](C)NC(=O)[C@@H]2C[C@@H](O)CN2C(=O)[C@H](c2cc(OCCC3CCN(C(=O)[C@H]4C[C@H](CN5CCC(n6cc(-c7cc(-c8ccccc8O)nnc7N)cn6)CC5)C4)CC3)no2)C(C)C)cc1 [compound 467, (2S,4R)-1-((S)-2-(3-(2-(1-((1r,3S)-3-((4-(4-(3-amino-6-(2-hydroxyphenyl)pyridazin-4-yl)-1H-pyrazol-1-yl)piperidin-1-yl)methyl)cyclobutane-1-carbonyl)piperidin-4-yl)ethoxy)isoxazol-5-yl)-3-methylbutanoyl)-4-hydroxy-N-((S)-1-(4-(4-methylthiazol-5-yl)phenyl)ethyl)pyrrolidine-2-carboxamide] | > 75 |
| > 30 | Cc1ncsc1-c1ccc([C@H](C)NC(=O)[C@@H]2C[C@@H](O)CN2C(=O)[C@@H](c2cc(OCCC3CCN(C(=O)[C@H]4C[C@H](CN5CCC(n6cc(-c7cc(-c8ccccc8O)nnc7N)cn6)CC5)C4)CC3)no2)C(C)C)cc1 [compound 468, (2S,4R)-1-((R)-2-(3-(2-(1-((1r,3R)-3-((4-(4-(3-amino-6-(2-hydroxyphenyl)pyridazin-4-yl)-1H-pyrazol-1-yl)piperidin-1-yl)methyl)cyclobutane-1-carbonyl)piperidin-4-yl)ethoxy)isoxazol-5-yl)-3-methylbutanoyl)-4-hydroxy-N-((S)-1-(4-(4-methylthiazol-5-yl)phenyl)ethyl)pyrrolidine-2-carboxamide] | – |
| > 30 | Cc1ncsc1-c1ccc([C@H](C)NC(=O)[C@@H]2C[C@@H](O)CN2C(=O)[C@H](c2cc(N3CCC(OC4CCN(C[C@H]5C[C@H](Oc6cc(N7C8CCC7CN(c7cc(-c9ccccc9O)nnc7N)C8)ccn6)C5)CC4)CC3)no2)C(C)C)cc1 [compound 469, (2S,4R)-1-((2S)-2-(3-(4-((1-(((1r,3r)-3-((4-(3-(3-amino-6-(2-hydroxyphenyl)pyridazin-4-yl)-3,8-diazabicyclo[3.2.1]octan-8-yl)pyridin-2-yl)oxy)cyclobutyl)methyl)piperidin-4-yl)oxy)piperidin-1-yl)isoxazol-5-yl)-3-methylbutanoyl)-4-hydroxy-N-((S)-1-(4-(4-methylthiazol-5-yl)phenyl)ethyl)pyrrolidine-2-carboxamide] | – |
| > 30 | Cc1ncsc1-c1ccc([C@H](C)NC(=O)[C@@H]2C[C@@H](O)CN2C(=O)[C@H](c2cc(N3CCC(CC4CCN(C[C@H]5C[C@H](Oc6cc(N7C8CCC7CN(c7cc(-c9ccccc9O)nnc7N)C8)ccn6)C5)CC4)CC3)no2)C(C)C)cc1 [compound 472, (2S,4R)-1-((2S)-2-(3-(4-((1-(((1r,3r)-3-((4-(3-(3-amino-6-(2-hydroxyphenyl)pyridazin-4-yl)-3,8-diazabicyclo[3.2.1]octan-8-yl)pyridin-2-yl)oxy)cyclobutyl)methyl)piperidin-4-yl)methyl)piperidin-1-yl)isoxazol-5-yl)-3-methylbutanoyl)-4-hydroxy-N-((S)-1-(4-(4-methylthiazol-5-yl)phenyl)ethyl)pyrrolidine-2-carboxamide] | – |
| > 30 | Cc1ncsc1-c1ccc([C@H](C)NC(=O)[C@@H]2C[C@@H](O)CN2C(=O)[C@H](c2cc(N3CCC(OC4CCN(C[C@H]5C[C@H](Oc6cc(N7C8CCC7CN(c7cc(-c9ccccc9O)nnc7N)C8)ccn6)C5)CC4)CC3)no2)C(C)C)cn1 [compound 475, (2S,4R)-1-((2S)-2-(3-(4-((1-(((1r,3r)-3-((4-(3-(3-amino-6-(2-hydroxyphenyl)pyridazin-4-yl)-3,8-diazabicyclo[3.2.1]octan-8-yl)pyridin-2-yl)oxy)cyclobutyl)methyl)piperidin-4-yl)oxy)piperidin-1-yl)isoxazol-5-yl)-3-methylbutanoyl)-4-hydroxy-N-((S)-1-(6-(4-methylthiazol-5-yl)pyridin-3-yl)ethyl)pyrrolidine-2-carboxamide] | – |
| > 30 | Cc1nccn1-c1ccc([C@H](C)NC(=O)[C@@H]2C[C@@H](O)CN2C(=O)[C@H](c2cc(N3CCC(OC4CCN(C[C@H]5C[C@H](Oc6cc(N7C8CCC7CN(c7cc(-c9ccccc9O)nnc7N)C8)ccn6)C5)CC4)CC3)no2)C(C)C)cc1 [compound 477, (2S,4R)-1-((2S)-2-(3-(4-((1-(((1r,3r)-3-((4-(3-(3-amino-6-(2-hydroxyphenyl)pyridazin-4-yl)-3,8-diazabicyclo[3.2.1]octan-8-yl)pyridin-2-yl)oxy)cyclobutyl)methyl)piperidin-4-yl)oxy)piperidin-1-yl)isoxazol-5-yl)-3-methylbutanoyl)-4-hydroxy-N-((S)-1-(4-(2-methyl-1H-imidazol-1-yl)phenyl)ethyl)pyrrolidine-2-carboxamide] | – |

| SMILES | DC50 [nM] | Dmax [%] |
| --- | --- | --- |
| Cc1ncsc1-c1ccc([C@H](C)NC(=O)[C@@H]2C[C@@H](O)CN2C(=O)[C@H](c2cc(OCCN3CCC(O[C@H]4C[C@H](Oc5cnnc(N6C7CCC6CN(c6cc(-c8ccccc8O)nnc6N)C7)c5)C4)CC3)no2)C(C)C)cc1 [compound 470, (2S,4R)-1-((2S)-2-(3-(2-(4-((1r,3S)-3-((6-(3-(3-amino-6-(2-hydroxyphenyl)pyridazin-4-yl)-3,8-diazabicyclo[3.2.1]octan-8-yl)pyridazin-4-yl)oxy)cyclobutoxy)piperidin-1-yl)ethoxy)isoxazol-5-yl)-3-methylbutanoyl)-4-hydroxy-N-((S)-1-(4-(4-methylthiazol-5-yl)phenyl)ethyl)pyrrolidine-2-carboxamide] | > 30 | – |
| Cc1ncsc1-c1ccc([C@H](C)NC(=O)[C@@H]2C[C@@H](O)CN2C(=O)[C@@H](c2cc(OCCN3CCC(O[C@H]4C[C@H](Oc5cnnc(N6C7CCC6CN(c6cc(-c8ccccc8O)nnc6N)C7)c5)C4)CC3)no2)C(C)C)cc1 [compound 471, (2S,4R)-1-((2R)-2-(3-(2-(4-((1r,3R)-3-((6-(3-(3-amino-6-(2-hydroxyphenyl)pyridazin-4-yl)-3,8-diazabicyclo[3.2.1]octan-8-yl)pyridazin-4-yl)oxy)cyclobutoxy)piperidin-1-yl)ethoxy)isoxazol-5-yl)-3-methylbutanoyl)-4-hydroxy-N-((S)-1-(4-(4-methylthiazol-5-yl)phenyl)ethyl)pyrrolidine-2-carboxamide] | < 2.5 | > 75 |
| Cc1ncsc1-c1ccc([C@H](C)NC(=O)[C@@H]2C[C@@H](O)CN2C(=O)[C@@H](c2cc(N3CCC(CC4CCN(C[C@H]5C[C@H](Oc6cc(N7C8CCC7CN(c7cc(-c9ccccc9O)nnc7N)C8)ccn6)C5)CC4)CC3)no2)C(C)C)cc1 [compound 473, (2S,4R)-1-((2R)-2-(3-(4-((1-(((1r,3r)-3-((4-(3-(3-amino-6-(2-hydroxyphenyl)pyridazin-4-yl)-3,8-diazabicyclo[3.2.1]octan-8-yl)pyridin-2-yl)oxy)cyclobutyl)methyl)piperidin-4-yl)methyl)piperidin-1-yl)isoxazol-5-yl)-3-methylbutanoyl)-4-hydroxy-N-((S)-1-(4-(4-methylthiazol-5-yl)phenyl)ethyl)pyrrolidine-2-carboxamide] | < 2.5 | > 75 |
| Cc1ncsc1-c1ccc([C@H](C)NC(=O)[C@@H]2C[C@@H](O)CN2C(=O)[C@@H](c2cc(N3CCC(OC4CCN(C[C@H]5C[C@H](Oc6cc(N7C8CCC7CN(c7cc(-c9ccccc9O)nnc7N)C8)ccn6)C5)CC4)CC3)no2)C(C)C)cc1 [compound 474, (2S,4R)-1-((2R)-2-(3-(4-((1-(((1r,3r)-3-((4-(3-(3-amino-6-(2-hydroxyphenyl)pyridazin-4-yl)-3,8-diazabicyclo[3.2.1]octan-8-yl)pyridin-2-yl)oxy)cyclobutyl)methyl)piperidin-4-yl)oxy)piperidin-1-yl)isoxazol-5-yl)-3-methylbutanoyl)-4-hydroxy-N-((S)-1-(4-(4-methylthiazol-5-yl)phenyl)ethyl)pyrrolidine-2-carboxamide] | < 2.5 | > 75 |
| Cc1ncsc1-c1ccc([C@H](C)NC(=O)[C@@H]2C[C@@H](O)CN2C(=O)[C@@H](c2cc(N3CCC(OC4CCN(C[C@H]5C[C@H](Oc6cc(N7C8CCC7CN(c7cc(-c9ccccc9O)nnc7N)C8)ccn6)C5)CC4)CC3)no2)C(C)C)cn1 [compound 476, (2S,4R)-1-((2R)-2-(3-(4-((1-(((1r,3r)-3-((4-(3-(3-amino-6-(2-hydroxyphenyl)pyridazin-4-yl)-3,8-diazabicyclo[3.2.1]octan-8-yl)pyridin-2-yl)oxy)cyclobutyl)methyl)piperidin-4-yl)oxy)piperidin-1-yl)isoxazol-5-yl)-3-methylbutanoyl)-4-hydroxy-N-((S)-1-(6-(4-methylthiazol-5-yl)pyridin-3-yl)ethyl)pyrrolidine-2-carboxamide] | < 2.5 | > 75 |
| Cc1nccn1-c1ccc([C@H](C)NC(=O)[C@@H]2C[C@@H](O)CN2C(=O)[C@@H](c2cc(N3CCC(OC4CCN(C[C@H]5C[C@H](Oc6cc(N7C8CCC7CN(c7cc(-c9ccccc9O)nnc7N)C8)ccn6)C5)CC4)CC3)no2)C(C)C)cc1 [compound 478, (2S,4R)-1-((2R)-2-(3-(4-((1-(((1r,3r)-3-((4-(3-(3-amino-6-(2-hydroxyphenyl)pyridazin-4-yl)-3,8-diazabicyclo[3.2.1]octan-8-yl)pyridin-2-yl)oxy)cyclobutyl)methyl)piperidin-4-yl)oxy)piperidin-1-yl)isoxazol-5-yl)-3-methylbutanoyl)-4-hydroxy-N-((S)-1-(4-(2-methyl-1H-imidazol-1-yl)phenyl)ethyl)pyrrolidine-2-carboxamide] | < 2.5 | > 75 |

Source: patent US12539292B2, “BRM targeting compounds and associated methods of use” (Arvinas Operations, Inc., priority 2018, dated 2026)
